In the supplement of paper PMC10307832 one finds relative viability data, which are given here for six cell lines.

Common to all, as to assay: relative viability (nuclei count vs DMSO), 5 days (fraction); higher = more cells survive
Compound in experiment [1]: C[C@H]([C@@H](C(=O)N)NC(=O)[C@@H]1CSSC[C@@H](C(=O)N[C@H](C(=O)N[C@@H](C(=O)N[C@H](C(=O)N1)CCCCN)CC2=CNC3=CC=CC=C32)CC4=CC=C(C=C4)O)NC(=O)[C@@H](CC5=CC=CC=C5)N)O [CAP-232] + Cc1cc(Nc2cc(N3CCN(C)CC3)nc(Sc3ccc(NC(=O)C4CC4)cc3)n2)n[nH]1 [Tozasertib] (partner 0.1 µM)
The gist of the method:
(§1)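 Lung cancer cell lines, seeded in 1536-well plates, were treated the following day by pin tool with a single drug or with five library-drug doses (not always all listed) in √10 steps on top of a fixed anchor-drug dose. Cells were fixed and nuclei stained in one step after 5 days, and nuclei were counted. Relative viability is the nuclei count for treated wells divided by that for vehicle wells, reported as medians of duplicate plates.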

Compound in experiment [2]: C[C@H]([C@@H](C(=O)N)NC(=O)[C@@H]1CSSC[C@@H](C(=O)N[C@H](C(=O)N[C@@H](C(=O)N[C@H](C(=O)N1)CCCCN)CC2=CNC3=CC=CC=C32)CC4=CC=C(C=C4)O)NC(=O)[C@@H](CC5=CC=CC=C5)N)O [CAP-232] + COc1cccc2cc(-c3nc([C@H]4CC[C@H](C(=O)O)CC4)n4ncnc(N)c34)[nH]c12 [OSI-027] (partner 0.5 µM)
The gist of the method: as §1

Compound in experiment [3]: C[C@H]([C@@H](C(=O)N)NC(=O)[C@@H]1CSSC[C@@H](C(=O)N[C@H](C(=O)N[C@@H](C(=O)N[C@H](C(=O)N1)CCCCN)CC2=CNC3=CC=CC=C32)CC4=CC=C(C=C4)O)NC(=O)[C@@H](CC5=CC=CC=C5)N)O [CAP-232] + CC(=O)c1c(C)c2cnc(Nc3ccc(N4CCNCC4)cn3)nc2n(C2CCCC2)c1=O [Palbociclib] (partner 0.5 µM)
The gist of the method: as §1

Compound in experiment [4]: C[C@H]([C@@H](C(=O)N)NC(=O)[C@@H]1CSSC[C@@H](C(=O)N[C@H](C(=O)N[C@@H](C(=O)N[C@H](C(=O)N1)CCCCN)CC2=CNC3=CC=CC=C32)CC4=CC=C(C=C4)O)NC(=O)[C@@H](CC5=CC=CC=C5)N)O [CAP-232] + Nc1nc2[nH]cc(CCc3ccc(C(=O)N[C@@H](CCC(=O)O)C(=O)O)cc3)c2c(=O)[nH]1 [Pemetrexed] (partner 0.2 µM)
The gist of the method: as §1

Compound in experiment [5]: C[C@H]([C@@H](C(=O)N)NC(=O)[C@@H]1CSSC[C@@H](C(=O)N[C@H](C(=O)N[C@@H](C(=O)N[C@H](C(=O)N1)CCCCN)CC2=CNC3=CC=CC=C32)CC4=CC=C(C=C4)O)NC(=O)[C@@H](CC5=CC=CC=C5)N)O [CAP-232] + CC(C)C[C@H](NC(=O)[C@H](Cc1ccccc1)NC(=O)c1cnccn1)B(O)O [Bortezomib] (partner 0.002 µM)
In short, it runs like this: as §1

On to NCI-H522, for which the relative viability in experiment [1] (first compound 0.4 µM) turned out to be 0.555; in experiment [1] (first compound 1.265 µM), 0.58; in experiment [1] (first compound 4 µM), 0.503; in experiment [1] (first compound 12.65 µM), 0.544; in experiment [2] (first compound 0.4 µM), 0.72; in experiment [2] (first compound 1.265 µM), 0.702. For the same cell line, the relative viability in experiment [2] (first compound 4 µM) amounted to 0.806; in experiment [2] (first compound 12.65 µM), 0.696; in experiment [3] (first compound 0.4 µM), 0.982; in experiment [3] (first compound 1.265 µM), 0.929; in experiment [3] (first compound 4 µM), 1.05; in experiment [3] (first compound 12.65 µM), 0.848. The relative viability in experiment [4] (first compound 0.4 µM) was 0.921; in experiment [4] (first compound 1.265 µM), 1.08; in experiment [4] (first compound 4 µM), 0.888; in experiment [4] (first compound 12.65 µM), 0.974.
Regarding NCI-H1792, the relative viability was found to be 1.13 in experiment [5] (first compound 0.4 µM); 1.01 in experiment [5] (first compound 1.265 µM); 1.27 in experiment [5] (first compound 4 µM); 0.845 in experiment [5] (first compound 12.65 µM); 0.996 in experiment [2] (first compound 0.4 µM); 0.76 in experiment [2] (first compound 1.265 µM). For the same cell line, the relative viability in experiment [2] (first compound 4 µM) stood at 0.875; in experiment [2] (first compound 12.65 µM), 0.832; in experiment [3] (first compound 0.4 µM), 0.893; in experiment [3] (first compound 1.265 µM), 0.694; in experiment [3] (first compound 4 µM), 0.669; in experiment [3] (first compound 12.65 µM), 0.545. The relative viability in experiment [4] (first compound 0.4 µM) is 1.12; in experiment [4] (first compound 1.265 µM), 0.78; in experiment [4] (first compound 4 µM) it was 0.849; in experiment [4] (first compound 12.65 µM), 0.465.
IA-LM: the relative viability in experiment [5] (first compound 0.4 µM) is 0.861; in experiment [5] (first compound 1.265 µM) it was 0.656; in experiment [5] (first compound 4 µM), 0.698; in experiment [5] (first compound 12.65 µM) it was 0.236.
Take NCI-H358: the relative viability came out at 0.102 in experiment [1] (first compound 0.4 µM); 0.115 in experiment [1] (first compound 1.265 µM); 0.089 in experiment [1] (first compound 4 µM); 0.0797 in experiment [1] (first compound 12.65 µM); 0.665 in experiment [2] (first compound 0.4 µM); 0.864 in experiment [2] (first compound 1.265 µM). Besides, the relative viability in experiment [2] (first compound 4 µM) is 0.71; in experiment [2] (first compound 12.65 µM), 0.664; in experiment [3] (first compound 0.4 µM), 0.22; in experiment [3] (first compound 1.265 µM) it was 0.125; in experiment [3] (first compound 4 µM) it was 0.14; in experiment [3] (first compound 12.65 µM), 0.153. The relative viability in experiment [4] (first compound 0.4 µM) was 0.151; in experiment [4] (first compound 1.265 µM), 0.171; in experiment [4] (first compound 4 µM), 0.187; in experiment [4] (first compound 12.65 µM), 0.187.
As for NCI-H596, the relative viability amounted to 1.14 in experiment [5] (first compound 0.4 µM); 1.2 in experiment [5] (first compound 1.265 µM); 0.701 in experiment [5] (first compound 4 µM); 0.925 in experiment [5] (first compound 12.65 µM); 0.962 in experiment [1] (first compound 0.4 µM); 1.04 in experiment [1] (first compound 1.265 µM). Moreover, the relative viability in experiment [1] (first compound 4 µM) was 0.886; in experiment [1] (first compound 12.65 µM), 0.821; in experiment [2] (first compound 0.4 µM) it was 0.767; in experiment [2] (first compound 1.265 µM) it was 0.726; in experiment [2] (first compound 4 µM), 0.884; in experiment [2] (first compound 12.65 µM), 0.633. Further, the relative viability in experiment [4] (first compound 0.4 µM) amounted to 0.562; in experiment [4] (first compound 1.265 µM), 0.49; in experiment [4] (first compound 4 µM), 0.439; in experiment [4] (first compound 12.65 µM) it was 0.448.
NCI-H1563: the relative viability in experiment [5] (first compound 0.4 µM) was determined as 0.836; in experiment [5] (first compound 1.265 µM) it was 0.735; in experiment [5] (first compound 4 µM) it was 0.957; in experiment [5] (first compound 12.65 µM), 0.687; in experiment [2] (first compound 0.4 µM), 0.757; in experiment [2] (first compound 1.265 µM) it was 0.673. Moreover, the relative viability in experiment [2] (first compound 4 µM) is 0.647; in experiment [2] (first compound 12.65 µM) it was 0.613; in experiment [4] (first compound 0.4 µM), 0.802; in experiment [4] (first compound 1.265 µM) it was 0.655; in experiment [4] (first compound 4 µM), 0.744; in experiment [4] (first compound 12.65 µM) it was 0.669.
